PMC5693244 (European journal of medicinal chemistry, 2017)
One block for each compound: values may come before it.

How the values were obtained:
[1] = Stability assays in rat liver microsomes; assay type: in vitro ADME; conditions: pH 7.4, Metabolic stability (% remaining), percent of parent compound remaining after 30-min incubation
h-FPR2 [2] = molecular target: T1, h-FPR2 (Homo sapiens, UniProt P25090); conditions: previously characterized; ref [33]; cited from earlier work
T1 sequence (P25090 1-351): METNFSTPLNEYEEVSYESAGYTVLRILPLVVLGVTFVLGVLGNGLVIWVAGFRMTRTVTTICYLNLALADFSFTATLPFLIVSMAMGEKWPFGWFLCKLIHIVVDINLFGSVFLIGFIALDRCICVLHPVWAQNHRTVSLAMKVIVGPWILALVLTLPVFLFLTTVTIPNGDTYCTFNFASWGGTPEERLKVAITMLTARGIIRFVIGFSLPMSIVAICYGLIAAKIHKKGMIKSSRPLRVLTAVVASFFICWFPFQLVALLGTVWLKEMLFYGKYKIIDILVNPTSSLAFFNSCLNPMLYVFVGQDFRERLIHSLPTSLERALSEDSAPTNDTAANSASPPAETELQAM

h-FPR1 = molecular target: T2, h-FPR1 (Homo sapiens, UniProt P21462); experiment: Ca2+ mobilization in FPR1-HL60 transfected cells; assay type: cell-based
T2 sequence (P21462 1-350): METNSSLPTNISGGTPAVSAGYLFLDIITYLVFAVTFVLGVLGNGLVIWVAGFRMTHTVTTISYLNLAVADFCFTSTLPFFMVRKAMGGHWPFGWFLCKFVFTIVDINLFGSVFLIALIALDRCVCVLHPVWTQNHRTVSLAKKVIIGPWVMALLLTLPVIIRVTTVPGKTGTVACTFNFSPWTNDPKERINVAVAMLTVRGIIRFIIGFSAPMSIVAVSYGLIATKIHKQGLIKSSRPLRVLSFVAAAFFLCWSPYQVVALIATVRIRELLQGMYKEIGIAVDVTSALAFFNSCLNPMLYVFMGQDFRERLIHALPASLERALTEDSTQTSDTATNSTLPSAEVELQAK

h-FPR2 [3] = molecular target: T1, h-FPR2; experiment: Ca2+ mobilization in FPR2-HL60 transfected cells; assay type: cell-based; conditions: for Agonist character (full/partial) at FPR2 / EC50, μM FPR2-HL60: Ca2+ mobilization; for EC50, μM FPR2-HL60: FPR2-HL60 cells
human neutrophils = experiment: Ca2+ mobilization in human neutrophils; assay type: cell-based
[4] = test system: rat primary microglial cells; experiment: Lactate dehydrogenase; assay type: cell-based; conditions: for Effect on LPS-induced cell death (LDH release): LPS-stimulated, pre-treatment 1 μM and 5 μM; for Effect on LDH release (cell death) / Effect on LDH release: basal conditions; for Effect on LDH release (cell death): 50 μM; for Effect on LDH release: 0.5–10 μM, 24 h
[5] = test system: rat primary microglial cells; experiment: MTT cell viability test in rat primary microglial cell cultures; assay type: cell-based; conditions: for Effect on metabolic activity (MTT) / Effect on conversion of MTT dye: basal conditions; for Effect on metabolic activity (MTT): 0.5–10 μM, 24 h; for Effect on conversion of MTT dye: 50 μM
[6] = test system: NO production in rat microglial cell cultures; experiment: NO release assay; assay type: cell-based; conditions: for Effect on LPS-increased NO level: LPS-stimulated, (S)-10 at 5 μM and 10 μM; for Effect on NO level: basal conditions
[7] = test system: IL-1β production in rat microglial cell cultures; experiment: IL-1β ELISA in rat microglial cell cultures; assay type: cell-based; conditions: for Effect on LPS-evoked IL-1β production / Block by WRW4 of effect on IL-1β: LPS-stimulated; for Effect on LPS-evoked IL-1β production: 0.5 to 10 μM; for Block by WRW4 of effect on IL-1β: pre-treatment with FPR2 antagonist WRW4; for Effect on IL-1β production: basal conditions, agonists 0.5 μM-10 μM
[8] = test system: TNF-α production in rat microglial cell cultures; experiment: TNF-α ELISA in rat microglial cell cultures; assay type: cell-based; conditions: for Effect on LPS-evoked TNF-α production / Block by WRW4 of effect on TNF-α: LPS-stimulated; for Effect on LPS-evoked TNF-α production: 0.5 to 10 μM; for Effect on TNF-α production: basal conditions, agonists 0.5 μM-10 μM; for Block by WRW4 of effect on TNF-α: pre-treatment with FPR2 antagonist WRW4
hCMEC/D3 cells = experiment: Bidirectional transport across hCMEC/D3 cell monolayer; assay type: in vitro ADME, human; conditions: 100 μM, 2 h; for PappAB: apical-to-basolateral transport; for PappBA: basolateral-to-apical transport
[9] = as above; assay type: in vitro ADME, human; conditions: human

remaining at 0.5 h, 10 μM [1]: > 20%
Compound: Cc1ccc(C2(CNC(=O)[C@@H](Cc3ccc(C#N)cc3)NC(=O)Nc3ccc(F)cc3)CC2)cc1F [(R)-15, (R)-3-(4-Cyanophenyl)-N-[[1-(3-fluoro-4-methylphenyl)cyclopropyl]methyl]-2-[3-(4-fluorophenyl)ureido]propanamide]

Compound: O=C(Nc1ccc([N+](=O)[O-])cc1)N[C@H](Cc1c[nH]c2ccccc12)C(=O)NCC1(c2ccccc2)CC1 [(R)-6]
Interaction with FPR2 (intrinsic activity) (h-FPR2 [2]): weak FPR2 antagonist

Agonist character (full/partial) at FPR1 (h-FPR1): potent FPR1 full agonists
Compound: COc1ccc(NC(=O)N[C@H](Cc2ccc(C#N)cc2)C(=O)NCC2(c3ccc(F)c(Cl)c3)CC2)cc1 [(R)-16, (R)-N-[[1-(3-Chloro-4-fluorophenyl)cyclopropyl]methyl]-3-(4-cyanophenyl)-2-[3-(4-methoxyphenyl)ureido]propanamide]

Agonist character (full/partial) at FPR2 (h-FPR2 [3]): partial agonists
Compound: O=C(Nc1ccccc1)N[C@@H](Cc1c[nH]c2ccccc12)C(=O)NCC1(c2ccccc2)CC1 [(S)-9, (S)-3-(1H-Indol-3-yl)-N-[(1-phenylcyclopropyl)methyl]-2-[3-(phenyl)ureido]propanamide]

Compound: O=C(Nc1ccc([N+](=O)[O-])cc1)N[C@H](Cc1cccnc1)C(=O)NCC1(c2ccccc2)CC1 [(R)-11, (R)-2-[3-(4-Nitrophenyl)ureido]-N-[(1-phenylcyclopropyl)methyl]-3-(3-pyridinyl)-propanamide]
Agonist character (full/partial) at FPR2 (h-FPR2 [3]): partial agonists
EC50, μM Neutrophils (human neutrophils): submicromolar range
Effect on LPS-induced cell death (LDH release) [4]: effectively blocked LPS-induced cell death processes
Effect on LDH release (cell death) [4]: significant increase in death processes
Effect on LDH release [4]: None of the compounds induced significant effects
Effect on metabolic activity (MTT) in LPS-stimulated cells [5]: no effect was observed on metabolic activity
Effect on metabolic activity (MTT) [5]: None of the compounds induced significant effects
Effect on LPS-increased NO level [6]: no effect was observed
Effect on NO level [6]: did not induce any change in NO level
Effect on LPS-evoked IL-1β production [7]: effectively decrease LPS-evoked cytokine production
Block by WRW4 of effect on IL-1β [7]: able to block the effect
Effect on IL-1β production [7]: did not induce any change
Effect on LPS-evoked TNF-α production [8]: effectively decrease LPS-evoked cytokine production
Effect on TNF-α production [8]: did not induce any change
PappAB (hCMEC/D3 cells): 11924.5 ×10⁻⁶ cm/s
PappBA (hCMEC/D3 cells): 43754.4 ×10⁻⁶ cm/s

Agonist character (full/partial) at FPR2 (h-FPR2 [3]): partial agonists
EC50, μM FPR1-HL60 (h-FPR1; FPR1-HL60 cells): low micromolar range
Compound: O=C(Nc1ccc([N+](=O)[O-])cc1)N[C@@H](Cc1cccnc1)C(=O)NCC1(c2ccccc2)CC1 [(S)-11, (S)-2-[3-(4-Nitrophenyl)ureido]-N-[(1-phenylcyclopropyl)methyl]-3-(3-pyridinyl)-propanamide]

Compound: N#Cc1ccc(C[C@H](NC(=O)Nc2ccc(F)cc2)C(=O)NCC2(c3ccc(F)c(Cl)c3)CC2)cc1 [(S)-17, (S)-3-(4-Cyanophenyl)-N-[[1-(3-chloro-4-fluorophenyl)cyclopropyl]methyl]-2-[3-(4-fluorophenyl)ureido]propanamide]
EC50, μM Neutrophils (human neutrophils): submicromolar range
remaining at 0.5 h, 10 μM [1]: > 20%
Effect on LPS-induced cell death (LDH release) [4]: effectively blocked LPS-induced cell death processes
Effect on LDH release (cell death) [4]: significant increase in death processes
Effect on LDH release [4]: None of the compounds induced significant effects
Effect on metabolic activity (MTT) in LPS-stimulated cells [5]: no effect was observed on metabolic activity
Effect on conversion of MTT dye [5]: decreased the conversion of MTT dye
Effect on metabolic activity (MTT) [5]: None of the compounds induced significant effects
Effect on LPS-increased NO level [6]: no effect was observed
Effect on NO level [6]: did not induce any change in NO level
Effect on LPS-evoked IL-1β production [7]: effectively decrease LPS-evoked cytokine production
Block by WRW4 of effect on IL-1β [7]: able to block the effect
Effect on IL-1β production [7]: did not induce any change
Effect on LPS-evoked TNF-α production [8]: effectively decrease LPS-evoked cytokine production
Block by WRW4 of effect on TNF-α [8]: able to block the effect
Effect on TNF-α production [8]: did not induce any change
efflux ratio at 2 h, 100 μM [9]: < 3
PappAB (hCMEC/D3 cells): 14552.1 ×10⁻⁶ cm/s
PappBA (hCMEC/D3 cells): 37598.1 ×10⁻⁶ cm/s

EC50, μM FPR2-HL60 (h-FPR2 [3]): not able to induce Ca^2+ mobilization
Compound: O=C(Nc1ccccc1)N[C@H](Cc1c[nH]c2ccccc12)C(=O)NCC1(c2ccccc2)CC1 [(R)-9, (R)-3-(1H-Indol-3-yl)-N-[(1-phenylcyclopropyl)methyl]-2-[3-(phenyl)ureido]propanamide]

Agonist character (full/partial) at FPR2 (h-FPR2 [3]): full agonist
Agonist character (full/partial) at FPR1 (h-FPR1): full agonist
Compound: COc1ccc(NC(=O)N[C@@H](Cc2c[nH]c3ccccc23)C(=O)NCC2(c3ccccc3)CC2)cc1 [(S)-7, (S)-3-(1H-Indol-3-yl)-2-[3-(4-methoxyphenyl)ureido]-N-[(1-phenylcyclopropyl)methyl] propanamide]

remaining at 0.5 h, 10 μM [1]: > 20%
Compound: N#Cc1ccc(C[C@@H](NC(=O)Nc2ccc(F)cc2)C(=O)NCC2(c3ccc(F)c(Cl)c3)CC2)cc1 [(R)-17, (R)-3-(4-Cyanophenyl)-N-[[1-(3-chloro-4-fluorophenyl)cyclopropyl]methyl]-2-[3-(4-fluorophenyl)ureido]propanamide]

Agonist character (full/partial) at FPR2 (h-FPR2 [3]): partial agonists
Compound: O=C(Nc1ccc(F)cc1)N[C@@H](Cc1c[nH]c2ccccc12)C(=O)NCC1(c2ccccc2)CC1 [(S)-8, (S)-2-[3-(4-Fluorophenyl)ureido]-3-(1H-indol-3-yl)-N-[(1-phenylcyclopropyl)methyl]propanamide]

Agonist character (full/partial) at FPR1 (h-FPR1): potent FPR1 full agonists
Compound: COc1ccc(NC(=O)N[C@@H](Cc2ccc(C#N)cc2)C(=O)NCC2(c3ccc(F)c(Cl)c3)CC2)cc1 [(S)-16, (S)-N-[[1-(3-Chloro-4-fluorophenyl)cyclopropyl]methyl]-3-(4-cyanophenyl)-2-[3-(4-methoxyphenyl)ureido]propanamide]

Agonist character (full/partial) at FPR2 (h-FPR2 [3]): full agonists
Compound: N#Cc1ccc(C[C@@H](NC(=O)Nc2ccc([N+](=O)[O-])cc2)C(=O)NCC2(c3ccccc3)CC2)cc1 [(R)-10, (R)-3-(4-Cyanophenyl)-2-[3-(4-nitrophenyl)ureido]-N-[(1-phenylcyclopropyl)methyl]propanamide]

Compound: N#Cc1ccc(C[C@H](NC(=O)Nc2ccc([N+](=O)[O-])cc2)C(=O)NCC2(c3ccccc3)CC2)cc1 [(S)-10, (S)-3-(4-Cyanophenyl)-2-[3-(4-nitrophenyl)ureido]-N-[(1-phenylcyclopropyl)methyl]propanamide]
Agonist character (full/partial) at FPR2 (h-FPR2 [3]): full agonists
Increase in agonist potency compared to (S)-6 (h-FPR2 [3]; FPR2, (S)-10 compared to (S)-6): 10 fold
Effect on LPS-induced cell death (LDH release) [4]: effectively blocked LPS-induced cell death processes
Effect on LDH release (cell death) [4]: significant increase in death processes
Effect on LDH release [4]: None of the compounds induced significant effects
Effect on metabolic activity (MTT) in LPS-stimulated cells [5]: no effect was observed on metabolic activity
Effect on conversion of MTT dye [5]: decreased the conversion of MTT dye
Effect on metabolic activity (MTT) [5]: None of the compounds induced significant effects
Effect on LPS-increased NO level [6]: significantly attenuated
Effect on NO level [6]: did not induce any change in NO level
Effect on LPS-evoked IL-1β production [7]: effectively decrease LPS-evoked cytokine production
Block by WRW4 of effect on IL-1β [7]: did not abolish the observed effect
Effect on IL-1β production [7]: did not induce any change
Effect on LPS-evoked TNF-α production [8]: effectively decrease LPS-evoked cytokine production
Block by WRW4 of effect on TNF-α [8]: did not abolish the observed effect
Effect on TNF-α production [8]: did not induce any change
PappBA (hCMEC/D3 cells): 25303.3 ×10⁻⁶ cm/s

EC50, μM FPR2-HL60 (h-FPR2 [3]): not able to induce Ca^2+ mobilization
remaining at 0.5 h, 10 μM [1]: 4%
Compound: O=C(Nc1ccc(F)cc1)N[C@H](Cc1c[nH]c2ccccc12)C(=O)NCC1(c2ccccc2)CC1 [(R)-8, (R)-2-[3-(4-Fluorophenyl)ureido]-3-(1H-indol-3-yl)-N-[(1-phenylcyclopropyl)methyl]propanamide]
